Data taken from PubChem BioAssay AID1963974 (Molecular Pharmacology Branch, DTP, NCI, 2024).

System: 648629-189-R-J1-PDC spheroids with HUVEC/MSC, viability
Test: Anticancer human tumor 648629-189-R-J1-PDC patient-derived bladder carcinoma cell line growth inhibition [PI3K]
Conditions: for IC50: curve of first compound; for viability, T/C: stronger effect = lower value
How it was run: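 We assembled tumor spheroids that included a stromal compartment of HUVEC and MSCs, then exposed them to targeted agents alone and together with PI3K pathway inhibitors. Concentration series descended by half-log from clinically achievable Cmax levels. Viability served as the endpoint.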
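Note: spheroids exposed to agents for seven days before reading.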
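Throughout, for viability, T/C: percent of vehicle control luminescence where 100% = DMSO treated spheroids.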

## CC1(C)CCC(Nc2ncc(C(F)(F)F)c(-c3c[nH]c4c(P(C)(C)=O)c(C#N)ccc34)n2)CN1 (centres undefined) + COc1c(OCCCN2CCOCC2)ccc2c3n(c(=NC(=O)c4cnc(N)nc4)nc12)CCN3
Second compound 0.00316 µM
  IC50: < 31.6 nM
Second compound 0.01 µM
  IC50: < 31.6 nM
Second compound 0.0316 µM
  IC50: < 31.6 nM
Second compound 0.1 µM
  IC50: < 31.6 nM
Second compound 0.316 µM
  IC50: < 31.6 nM
Second compound 1 µM
  IC50: < 31.6 nM
Second compound 0.00316 µM, first compound 0.0316 µM
  viability, T/C: 25.2%
Second compound 0.00316 µM, first compound 0.1 µM
  viability, T/C: 25.7%
Second compound 0.00316 µM, first compound 0.316 µM
  viability, T/C: 31.6%
Second compound 0.00316 µM, first compound 1 µM
  viability, T/C: 31.4%
Second compound 0.00316 µM, first compound 3.16 µM
  viability, T/C: 41.1%
Second compound 0.00316 µM, first compound 10 µM
  viability, T/C: 4.79%
Second compound 0.01 µM, first compound 0.0316 µM
  viability, T/C: 28.9%
Second compound 0.01 µM, first compound 0.1 µM
  viability, T/C: 25.2%
Second compound 0.01 µM, first compound 0.316 µM
  viability, T/C: 25.1%
Second compound 0.01 µM, first compound 1 µM
  viability, T/C: 30.8%
Second compound 0.01 µM, first compound 3.16 µM
  viability, T/C: 35.1%
Second compound 0.01 µM, first compound 10 µM
  viability, T/C: 3.26%
Second compound 0.0316 µM, first compound 0.0316 µM
  viability, T/C: 26.3%
Second compound 0.0316 µM, first compound 0.1 µM
  viability, T/C: 23.6%
Second compound 0.0316 µM, first compound 0.316 µM
  viability, T/C: 26.5%
Second compound 0.0316 µM, first compound 1 µM
  viability, T/C: 27.7%
Second compound 0.0316 µM, first compound 3.16 µM
  viability, T/C: 31%
Second compound 0.0316 µM, first compound 10 µM
  viability, T/C: 9.93%
Second compound 0.1 µM, first compound 0.0316 µM
  viability, T/C: 22%
Second compound 0.1 µM, first compound 0.1 µM
  viability, T/C: 22.2%
Second compound 0.1 µM, first compound 0.316 µM
  viability, T/C: 19.9%
Second compound 0.1 µM, first compound 1 µM
  viability, T/C: 21.8%
Second compound 0.1 µM, first compound 3.16 µM
  viability, T/C: 21%
Second compound 0.1 µM, first compound 10 µM
  viability, T/C: 1.86%
Second compound 0.316 µM, first compound 0.0316 µM
  viability, T/C: 15.5%
Second compound 0.316 µM, first compound 0.1 µM
  viability, T/C: 13.7%
Second compound 0.316 µM, first compound 0.316 µM
  viability, T/C: 13.2%
Second compound 0.316 µM, first compound 1 µM
  viability, T/C: 16.3%
Second compound 0.316 µM, first compound 3.16 µM
  viability, T/C: 12.5%
Second compound 0.316 µM, first compound 10 µM
  viability, T/C: 1.02%
Second compound 1 µM, first compound 0.0316 µM
  viability, T/C: 6.13%
Second compound 1 µM, first compound 0.1 µM
  viability, T/C: 5.76%
Second compound 1 µM, first compound 0.316 µM
  viability, T/C: 6.72%
Second compound 1 µM, first compound 1 µM
  viability, T/C: 8.34%
Second compound 1 µM, first compound 3.16 µM
  viability, T/C: 7.64%
Second compound 1 µM, first compound 10 µM
  viability, T/C: 1.32%

## Cn1cnc2c(F)c(Nc3ccc(Br)cc3Cl)c(C(=O)NOCCO)cc21 + Cc1nc(NC(=O)N2CCCC2C(N)=O)sc1-c1ccnc(C(C)(C)C(F)(F)F)c1
Second compound 0.0316 µM
  IC50: > 3000 nM
Second compound 0.1 µM
  IC50: > 3000 nM
Second compound 0.316 µM
  IC50: > 3000 nM
Second compound 1 µM
  IC50: > 3000 nM
Second compound 3.16 µM
  IC50: > 3000 nM
Second compound 10 µM
  IC50: < 9.49 nM
Second compound 0.0316 µM, first compound 0.00949 µM
  viability, T/C: 94.3%
Second compound 0.0316 µM, first compound 0.03 µM
  viability, T/C: 95.2%
Second compound 0.0316 µM, first compound 0.0949 µM
  viability, T/C: 99%
Second compound 0.0316 µM, first compound 0.3 µM
  viability, T/C: 90%
Second compound 0.0316 µM, first compound 0.949 µM
  viability, T/C: 93%
Second compound 0.0316 µM, first compound 3 µM
  viability, T/C: 70.5%
Second compound 0.1 µM, first compound 0.00949 µM
  viability, T/C: 92.8%
Second compound 0.1 µM, first compound 0.03 µM
  viability, T/C: 90.7%
Second compound 0.1 µM, first compound 0.0949 µM
  viability, T/C: 98.1%
Second compound 0.1 µM, first compound 0.3 µM
  viability, T/C: 95.4%
Second compound 0.1 µM, first compound 0.949 µM
  viability, T/C: 86.2%
Second compound 0.1 µM, first compound 3 µM
  viability, T/C: 75.8%
Second compound 0.316 µM, first compound 0.00949 µM
  viability, T/C: 94.6%
Second compound 0.316 µM, first compound 0.03 µM
  viability, T/C: 93.8%
Second compound 0.316 µM, first compound 0.0949 µM
  viability, T/C: 77.2%
Second compound 0.316 µM, first compound 0.3 µM
  viability, T/C: 85.2%
Second compound 0.316 µM, first compound 0.949 µM
  viability, T/C: 81.7%
Second compound 0.316 µM, first compound 3 µM
  viability, T/C: 72.4%
Second compound 1 µM, first compound 0.00949 µM
  viability, T/C: 80.7%
Second compound 1 µM, first compound 0.03 µM
  viability, T/C: 78.2%
Second compound 1 µM, first compound 0.0949 µM
  viability, T/C: 71.3%
Second compound 1 µM, first compound 0.3 µM
  viability, T/C: 75.5%
Second compound 1 µM, first compound 0.949 µM
  viability, T/C: 72.9%
Second compound 1 µM, first compound 3 µM
  viability, T/C: 64.2%
Second compound 3.16 µM, first compound 0.00949 µM
  viability, T/C: 54.6%
Second compound 3.16 µM, first compound 0.03 µM
  viability, T/C: 60.1%
Second compound 3.16 µM, first compound 0.0949 µM
  viability, T/C: 59.2%
Second compound 3.16 µM, first compound 0.3 µM
  viability, T/C: 52.1%
Second compound 3.16 µM, first compound 0.949 µM
  viability, T/C: 57.1%
Second compound 3.16 µM, first compound 3 µM
  viability, T/C: 52.7%
Second compound 10 µM, first compound 0.00949 µM
  viability, T/C: 39.5%
Second compound 10 µM, first compound 0.03 µM
  viability, T/C: 34.4%
Second compound 10 µM, first compound 0.0949 µM
  viability, T/C: 34.7%
Second compound 10 µM, first compound 0.3 µM
  viability, T/C: 40.2%
Second compound 10 µM, first compound 0.949 µM
  viability, T/C: 44.8%
Second compound 10 µM, first compound 3 µM
  viability, T/C: 38.1%
